Assay results taken from patent US9480253B2, “Use of 3-(2,4,6-Trimethylphenyl)-4-neopentylcarbonyloxy-5,5-tetramethylene-delta-3-dihydrofuran-2-one for controlling psyllids” (BAYER INTELLECTUAL PROPERTY GMBH, priority 2004, dated 2016).

Legend:
[1] = tested on: insects from the family Psyllidae; assay: Control of insects from the family Psyllidae, comparison with spirodiclofen; format: in vivo
[2] = tested on: Trioza erythreae; assay: Field spray test against psyllids on orange trees (Example A); format: in vivo; settings: 144 g a.i./ha, 240 SC + 0.2% RME; for Efficacy in % Abbott 7TNAA: 540 l water per ha, 7 days after the first treatment; for Efficacy in % Abbott 7TNAB / Efficacy in % Abbott 13TNAB: two applications at interval of one week; for Efficacy in % Abbott 7TNAB: 7 days after the last treatment; for Efficacy in % Abbott 13TNAB: 13 days after the last treatment
Procedure: • Pest: Trioza erythreae • Plant: Orange
The compound of the formula (I) (240 SC) was tested at an application rate of 144 g a.i./ha+0.2% a.i. rapeseed oil methyl ester (RME) at 540 l water per ha in comparison with spirodiclofen application rate comparison.
Spraying was effected by means of a pneumatic knapsack sprayer.
The experiment was carried out using one tree per plot and three replications. In each case two applications were carried out at an interval of one week.
The activity against psyllids was determined by counting the number of live animals on 20 leaves per tree 7 days after the first treatment and 7 and 13 days after the last treatment. The efficacy was calculated with the aid of Abbott's formula.

[3] = tested on: insects from the family Aleyrodidae; settings: known from EP-A-0 528 156; cited from earlier work
[4] = tested on: Paratrioza cockerelli; assay: Field spray test against psyllids on tomato (Example B); format: in vivo; settings: 72 g a.i./ha, 240 SC
Procedure: • Pest: Paratrioza cockerelli • Plant: Tomato The compound of the formula (I) (240 SC) was tested at an application rate of 72 […] water application rate of 345 l ha in comparison with Leverage (48 g a.i./ha imidacloprid+33 […]). Spraying was effected by means of a manually operated knapsack sprayer. The experiment was carried out with 10-m^2 plots and three replications. In each case two applications were carried out at an interval of one week. The activity against […] determined by counting the number of live animals on 10 leaves 7 days after the first treatment and 7 and 14 days after the second treatment. The efficacy was calculated with the aid of Abbott's formula.

[5] = known from EP-A-0 528 156; cited from earlier work
[6] = tested on: psyllids; settings: under certain conditions; timing of application very limited (De Maeyer et al.); cited from earlier work

Compound | effectiveness in controlling insects from the family Psyllidae relative to spirodiclofen [1] | Efficacy in % Abbott 7TNAA [2] [% Abbott] | Efficacy in % Abbott 7TNAB [2] [% Abbott] | Efficacy in % Abbott 13TNAB [2] [% Abbott] | activity against insects from the family Aleyrodidae [3] | Efficacy in % Abbott 7TNAA ([4]; 345 l water/ha, 7 days after the first treatment) [% Abbott] | Efficacy in % Abbott 7TNAB ([4]; two applications at interval of one week, 7 days after the second treatment) [% Abbott] | Efficacy in % Abbott 14TNAB ([4]; two applications at interval of one week, 14 days after the second treatment) [% Abbott] | acaricidal activity [5] | ovicidal activity against psyllids [6]
Cc1cc(C)c(C2=C(OC(=O)CC(C)(C)C)C3(CCCC3)OC2=O)c(C)c1 [Compound of the formula (I), 3-(2,4,6-Trimethylphenyl)-4-neopentylcarbonyloxy-5,5-tetramethylene-Δ^3-dihydrofuran-2-one] | considerably more effective than spirodiclofen | 95 | 97.5 | 95.2 | active | 80.3 | 84.8 | 98.7 | acaricidal activity | 
CCC(C)(C)C(=O)OC1=C(c2ccc(Cl)cc2Cl)C(=O)OC12CCCCC2 [Spirodiclofen, reference compound] |  | 80.3 | 91.5 | 88.1 |  |  |  |  |  | ovicidal activity
